Test results: US7101906B2, “2,3,4-substituted cyclopentanones as therapeutic agents” (Allergan, Inc., priority 2004, dated 2006)

What was measured:
Assay type in all cases: in vivo
Beagle dogs [1] = assay: Ocular surface hyperemia in dogs; settings: dog, 0.03% topical; score 0.5 trace, 1 mild, 2 moderate, 3 severe
Experimental: Ocular surface hyperemia was visually assessed and scored according to a system typically used clinically.
Ocular surface hyperemia was evaluated at the same time points as intraocular pressure measurement. It should be noted that untreated dog eyes frequently have a pink/red tone. Thus, values of trace or even mild are not necessarily out of the normal range.

cynomolgus monkeys = assay: Intraocular pressure in cynomolgus monkeys; settings: monkey, 0.03% topical, single dose, 2-24 h
Experimental: (§1) Intraocular pressure studies in dogs involved pneumatonometry performed in conscious, Beagle dogs of both sexes (10–15 kg). The animals remained conscious throughout the study and were gently restrained by hand. Drugs were administered topically to one eye as a 25 μL volume drop, the other eye received 25 μL vehicle (0.1% polysorbate 80:10 mM TRIS) as a control. Proparacaine (0.1%) was used for corneal anesthesia during tonometry.
An analogous procedure was carried out with cynomolgus monkeys with measurements at 2, 4, 6, and 24 hours after a single dose.

Beagle dogs [2] = assay: Intraocular pressure in dogs (pneumatonometry); settings: dog, 0.03% topical 25 μL drop to one eye, 5 day study
Experimental: as §1
Intraocular pressure was determined just before drug administration and at 2, 4 and 6 hr thereafter on each day of the 5 day study. Drug was administered immediately after the first IOP reading.

Max hyperemia (Beagle dogs [1])	SMILES	Max. ΔIOP (mm Hg) (cynomolgus monkeys)	Max. ΔIOP (mm Hg) (Beagle dogs [2])
1.0	CC(C)OC(=O)CCC/C=C\C[C@H]1C(=O)CC[C@@H]1/C=C/C(O)CCc1sc2ccccc2c1Cl (single isomer, unassigned) [Compound 16c]	−7.8	−4.8
0.9	CC(C)OC(=O)CCC/C=C\C[C@H]1C(=O)CC[C@@H]1/C=C/C(O)CCc1sc2ccccc2c1Cl (single isomer, unassigned) [Compound 16b]	−3.4	−5.7
